Test results: publication PMC3898987 (Bioorganic & Medicinal Chemistry, 2013)
Substitutions are numbered along the chain they refer to.

Columns and labels:
Test in all cases: radioligand saturation binding, transfected HEK293 membranes
[1] = target: T1, 5-HT3A receptor S163T (Homo sapiens, UniProt P46098, S158T); conditions: [3H]-palonosetron saturation, 5-HT3A S163T, 4 °C, 24 h
T1 sequence (P46098 24-478 S158T): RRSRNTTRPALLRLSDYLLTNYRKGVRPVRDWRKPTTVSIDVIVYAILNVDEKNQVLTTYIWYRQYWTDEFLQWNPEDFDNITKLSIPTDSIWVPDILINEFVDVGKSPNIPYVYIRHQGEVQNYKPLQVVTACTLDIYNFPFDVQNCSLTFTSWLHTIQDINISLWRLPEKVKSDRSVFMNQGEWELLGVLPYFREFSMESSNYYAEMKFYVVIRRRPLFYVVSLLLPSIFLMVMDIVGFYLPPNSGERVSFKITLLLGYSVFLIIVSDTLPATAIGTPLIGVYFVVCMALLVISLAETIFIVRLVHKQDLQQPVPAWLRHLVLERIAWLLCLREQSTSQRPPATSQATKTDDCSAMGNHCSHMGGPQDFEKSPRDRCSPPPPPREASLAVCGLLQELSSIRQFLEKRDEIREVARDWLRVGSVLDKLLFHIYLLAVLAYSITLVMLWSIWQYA
Method: (§1) Human embryonic kidney (HEK) 293 cells were cultured on 90 mm tissue culture plates at 37 °C and 7% CO2 in a humidified atmosphere. They were grown in DMEM:F12 (Dulbecco’s Modified Eagle’s Medium/Nutrient Mix F12 (1:1)) with GlutaMAX I™ containing 10% fetal calf serum and passaged when confluent. For radioligand binding studies, cells in 90 mm dishes were transfected at 60–70% confluency using polyethyleneimine and incubated for 3–4 days before use. For FlexStation assays, transfected cells were plated on 96-well plates and incubated 1–2 days before assay. […]
(§2) Eight-point binding assays were performed to produce saturation binding curves. […] Radioactive counts were measured using a Beckman LS6000SC liquid scintillation counter (Fullerton, California, USA).
(§3) Data were analyzed by iterative curve fitting using GraphPad Prism v5 (San Diego, CA) according to the following equation: B=Bmax[L]^n/kdn+[L]^n where B is the amount of bound radioligand, Bmax is the maximum specific binding at equilibrium, [L] is the concentration of radioligand, Kd is the equilibrium dissociation constant of the radioligand, and n is the Hill coefficient.

[2] = target: T2, 5-HT3AB receptor, 5-HT3B subunit I183A (Homo sapiens, UniProt O95264+P46098, I176A); conditions: [3H]-palonosetron saturation, 5-HT3AB with 5-HT3B I183A, 4 °C, 24 h
T2 sequence (P46098 24-478): T1 sequence (P46098 24-478 S158T) with T135S
T2 sequence (O95264 22-441 I176A): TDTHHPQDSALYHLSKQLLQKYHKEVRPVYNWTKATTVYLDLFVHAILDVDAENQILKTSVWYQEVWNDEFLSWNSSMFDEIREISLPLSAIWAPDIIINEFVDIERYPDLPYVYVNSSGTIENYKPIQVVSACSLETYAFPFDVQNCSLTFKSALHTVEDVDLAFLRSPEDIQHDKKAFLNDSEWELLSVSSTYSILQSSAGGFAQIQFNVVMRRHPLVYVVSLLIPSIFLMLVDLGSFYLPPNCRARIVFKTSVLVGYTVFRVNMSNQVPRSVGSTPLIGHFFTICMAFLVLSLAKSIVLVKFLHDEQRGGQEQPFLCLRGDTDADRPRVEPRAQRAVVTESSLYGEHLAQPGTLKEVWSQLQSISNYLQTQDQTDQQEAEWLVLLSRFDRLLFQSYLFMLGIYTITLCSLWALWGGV
Method: as §1, §2, §3

[3] = target: T3, 5-HT3A receptor F130Y (Homo sapiens, UniProt P46098, F125Y); conditions: [3H]-palonosetron saturation, 5-HT3A F130Y, 4 °C, 24 h
T3 sequence (P46098 24-478 F125Y): T1 sequence (P46098 24-478 S158T) with F102Y, T135S
Method: as §1, §2, §3

[4] = target: T4, 5-HT3A receptor W90C (Homo sapiens, UniProt P46098, W85C); conditions: [3H]-palonosetron saturation, 5-HT3A W90C, 4 °C, 24 h, NB = no binding
T4 sequence (P46098 24-478 W85C): T1 sequence (P46098 24-478 S158T) with W62C, T135S
Method: as §1, §2, §3

O=C1c2cccc3c2[C@H](CCC3)CN1[C@@H]1CN2CCC1CC2 [Palonosetron]
Kd [1]: 0.22 ± 0.05 nM
Kd [2]: 0.23 ± 0.12 nM
Kd [3]: 0.26 ± 0.09 nM
Kd [4]: > 2 nM
Kd ([4]; listed as [^3H]palonosetron): no saturable, specific binding
